Assay results taken from the supplement of paper PMC10307832.

Legend:
Test in all cases: relative viability (nuclei count vs DMSO), 5 days (fraction); higher = more cells survive
BI-D1870 + OSI-027 = compound: CC(C)CCN1c2nc(Nc3cc(F)c(O)c(F)c3)ncc2N(C)C(=O)C1C [BI-D1870] + COc1cccc2cc(-c3nc([C@H]4CC[C@H](C(=O)O)CC4)n4ncnc(N)c34)[nH]c12 [OSI-027] (partner 0.5 µM)
Summary of the method: (§1)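 After 5 days of treatment, lung cancer cells in 1536-well plates were fixed and stained in a single step (final 0.05% Triton X-100, 1% formaldehyde, 1 ug/ml Hoechst) and their nuclei counted on 4× images. Treatment had been applied by pin tool the day after seeding as one drug alone or as a fixed anchor-drug dose with five library-drug doses (not always all listed) in √10 steps. Relative viability is the nuclei count of treated wells divided by that of vehicle wells, and values are medians of duplicate plates.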

BI-D1870 + Vorinostat = compound: CC(C)CCN1c2nc(Nc3cc(F)c(O)c(F)c3)ncc2N(C)C(=O)C1C [BI-D1870] + O=C(CCCCCCC(=O)Nc1ccccc1)NO [Vorinostat] (partner 1 µM)
Summary of the method: as §1

Zebularine + Navitoclax = compound: O=c1ncccn1[C@@H]1O[C@H](CO)[C@@H](O)[C@H]1O [Zebularine] + CC1(C)CCC(c2ccc(Cl)cc2)=C(CN2CCN(c3ccc(C(=O)NS(=O)(=O)c4ccc(N[C@H](CCN5CCOCC5)CSc5ccccc5)c(S(=O)(=O)C(F)(F)F)c4)cc3)CC2)C1 [Navitoclax] (partner 0.5 µM)
Summary of the method: as §1

Zebularine + Linsitinib = compound: O=c1ncccn1[C@@H]1O[C@H](CO)[C@@H](O)[C@H]1O [Zebularine] + C[C@]1(O)C[C@@H](c2nc(-c3ccc4ccc(-c5ccccc5)nc4c3)c3c(N)nccn32)C1 [Linsitinib] (partner 1 µM)
Summary of the method: as §1

Row | Cell Line | relative viability (BI-D1870 + OSI-027; first compound 0.04 µM) | relative viability (BI-D1870 + OSI-027; first compound 0.1265 µM) | relative viability (BI-D1870 + OSI-027; first compound 0.4 µM) | relative viability (BI-D1870 + OSI-027; first compound 1.265 µM) | relative viability (BI-D1870 + OSI-027; first compound 4 µM) | relative viability (BI-D1870 + Vorinostat; first compound 0.04 µM) | relative viability (BI-D1870 + Vorinostat; first compound 0.1265 µM) | relative viability (BI-D1870 + Vorinostat; first compound 0.4 µM) | relative viability (BI-D1870 + Vorinostat; first compound 1.265 µM) | relative viability (BI-D1870 + Vorinostat; first compound 4 µM) | relative viability (Zebularine + Navitoclax; first compound 1 µM) | relative viability (Zebularine + Navitoclax; first compound 3.162 µM) | relative viability (Zebularine + Navitoclax; first compound 10 µM) | relative viability (Zebularine + Navitoclax; first compound 31.62 µM) | relative viability (Zebularine + Navitoclax; first compound 100 µM) | relative viability (Zebularine + Linsitinib; first compound 1 µM) | relative viability (Zebularine + Linsitinib; first compound 3.162 µM) | relative viability (Zebularine + Linsitinib; first compound 10 µM) | relative viability (Zebularine + Linsitinib; first compound 31.62 µM) | relative viability (Zebularine + Linsitinib; first compound 100 µM)
1 | LK-2 | 0.21 | 0.259 | 0.198 | 0.197 | 0.148 | 0.351 | 0.391 | 0.468 | 0.277 | 0.279 | 0.759 | 0.946 | 0.588 | 0.787 | 0.417 | 0.52 | 0.564 | 0.371 | 0.35 | 0.218
2 | LOU-NH91 | 0.797 | 0.701 | 0.7 | 0.75 | 0.57 | 0.991 | 0.859 | 0.876 | 0.858 | 0.655 | 0.676 | 0.659 | 0.634 | 0.603 | 0.395 | 0.893 | 0.963 | 0.868 | 0.876 | 0.629
3 | LU99A | 0.295 | 0.265 | 0.288 | 0.308 | 0.287 | 0.584 | 0.422 | 0.412 | 0.428 | 0.345 | 0.827 | 0.635 | 0.596 | 0.408 | 0.166 | 0.66 | 0.529 | 0.437 | 0.344 | 0.169
4 | LXF-289 | 0.796 | 0.74 | 0.746 | 0.807 | 0.776 | 0.681 | 0.738 | 0.695 | 0.695 | 0.527 | 1.02 | 0.945 | 0.851 | 0.744 | 0.226 | 1.08 | 0.977 | 0.96 | 0.78 | 0.289
5 | NCI-H23 | 0.782 | 0.525 | 0.463 | 0.547 | 0.344 | 0.555 | 0.619 | 0.489 | 0.448 | 0.202 | 0.775 | 0.802 | – | 0.818 | 0.86 | 0.671 | 0.549 | – | 0.646 | 0.548
6 | NCI-H322M | 0.579 | 0.511 | 0.38 | 0.444 | 0.494 | 0.919 | 0.879 | 0.76 | 0.781 | 0.769 | 1.37 | 1.19 | 1.13 | 0.917 | 0.82 | 0.945 | 0.902 | 0.721 | 0.849 | 0.685
7 | NCI-H441 | 0.577 | 0.557 | 0.601 | 0.637 | 0.496 | 0.686 | 0.794 | 0.731 | 0.722 | 0.655 | 0.815 | 0.467 | 0.366 | 0.368 | 0.245 | 0.581 | 0.548 | 0.291 | 0.249 | 0.234
8 | NCI-H460 | 0.825 | 0.504 | 0.43 | 0.442 | 0.185 | 0.922 | 0.643 | 0.672 | 0.37 | 0.0691 | 1.26 | 1.18 | 0.0689 | 0.413 | 0.0857 | 1.21 | 1.06 | 0.272 | 0.388 | 0.0365
